Test results: patent US6949575B2, “Method of inhibiting amyloid protein aggregation and imaging amyloid deposits using aminoindane derivatives” (Pfizer Inc., priority 2000, dated 2005)
Values joined by “and” are separate entries in the source; they are usually repeats but may differ in a detail not shown here. Identical values can stand only once.

Assays:
Soluble Aβ(1-40) peptide = molecular target: T1, Soluble Aβ(1-40) peptide (Homo sapiens, UniProt P05067); experiment: BASSR (Beta-Amyloid Self-Seeding Radioassay): inhibitors of self-seeded amyloid fibril growth; format: biochemical; settings: 30 μM soluble Aβ(1-40) + 125I-labeled Aβ(1-40), 37° C., 3 to 5 hours, filtration; replicate values
T1 construct: Soluble Aβ(1-40) peptide; purchased Bachem, Torrance, Calif
T1 sequence (P05067 672-711 limits assumed): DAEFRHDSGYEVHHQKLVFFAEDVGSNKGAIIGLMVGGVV
Procedure: BASSR (Beta-Amyloid Self-Seeding Radioassay)
An assay for inhibitors of self-seeded amyloid fibril growth
Assay Buffer—[…] sodium phosphate, pH 7.5, 100 mM NaCl, 0.02% NaN3, 1 M urea (filter and store at 4° C.)
Soluble Aβ(1-40) peptide (Bachem, Torrance, Calif.)—2.2 mg/mL in deionized H2O (stored in aliquots at −20° C., keep on ice when thawed) will self-seed after 1 week storage. Typically, the solution should be stored until no lag phase is seen in the assay.
^125I-labeled Aβ(1-40)—150 to 350K cpm/μL in 100% acetonitrile—0.1% trifluoroacetic acid (TFA)—1% β-mercaptoethanol (aliquots stored at −20° C.). ^125I-labeled Aβ(1-40) can be made in accordance with the procedure set forth by H. Levine, III in Neurobiol. Aging, 16:755 (1995), which is hereby incorporated by reference, or this reagent may be purchased from Amersham, Arlington Heights, Ill. Final assay conditions: 30 μM soluble Aβ(1-40) in deionized water in assay buffer+20 to 50K cpm ^125I-labeled Aβ(1-40) per assay. Compound to be tested is dissolved in dimethylsulfoxide (DMSO), typically 5 to 50 mM stock, such that the final concentration of DMSO is <1% v/v in the assay. Assay: Reaction mixture for 50 assays (on ice) is comprised of 0.1 to 0.2 μL of ^125I-labeled A^125I-labeled Aβ(1-40)+1 μL of soluble Aβ(1-40)+13.5 μL assay buffer per assay. The following are the amounts of the components of the reaction mixture sufficient for 50 assay wells.
• 1) Prepare reaction mixture above by mixing components and storing on ice. • 2) Pipet 14.5 μL of reaction mixture into each of 50 wells on a polypropylene U-bottom 96-well microtiter plate on ice (Costar 3794). • 3) Add 1.7 μL of diluted compound to be tested to each well in a column of eight, including solvent control. Serial 3-fold dilutions from 1 mM (100 μM final) in assay buffer-urea=7 dilutions+zero. Each 96-well plate can therefore accommodate 11 samples+1 Congo Red control (0.039-5 μM final in 2-fold steps). • 4) Seal the plate with aluminum film (Beckman 538619) and incubate for 10 minutes on ice. • 5) Raise the temperature to 37° C. and incubate for 3 to 5 hours (depending on the lot of the peptide). • 6) Remove the aluminum film and add 200 μL/well of ice cold assay buffer with urea, collecting the radiolabeled fibrils by vacuum filtration through 0.2-μm pore size GVWP filters in 96-well plates (Millipore MAGV N22, Bedford, Mass.). Determine the radioactivity of the filters using standard methods well-known to those skilled in the art. BASST (Beta-Amyloid Self-Seeding, Thioflavin T)

Aβ (1-42) = molecular target: T2, Aβ (1-42) (Homo sapiens, UniProt P05067); experiment: Batym Assay: Aβ (1-42) aggregation, Thioflavin T fluorescence; format: biochemical; settings: Aβ1-42 final 100 μM, 37° C., 1 day, read-out: BAYTM IC50
T2 construct: Required Aβ (1-42) (California Peptide); purchased California Peptide
T2 sequence (P05067 672-713 limits assumed): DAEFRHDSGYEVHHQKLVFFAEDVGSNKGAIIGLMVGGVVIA
Procedure: Required Aβ (1-42) (California Peptide) was dried from its HFIP stock solution. The Aβ (1-42) was dissolved in DMSO and then mixed with phosphate buffered saline (PBS) (pH 7.4). The mixed Aβ (1-42) solution was filtered with a Omnipore membrane 0.2-μm syringe filter (Millipore, Bedford, Mass.). The compound to be tested in DMSO (50× concentrate) was put into each well (0.5 μL/well) of a 96-well plate. The Aβ (1-42) solution was added into each well (24.5 μL/well). The plate was centrifuged at 1,000 g for 5 minutes and incubated at 37° C. for 1 day (Aβ1-42; final concentration 100 μM).
After incubation, Thioflavin T (ThT) (30 μM) solution in glycine-NaOH buffer (pH 8.5, 50 mM) was added into each well (250 μL/well), fluorescence was measured (ex=440/20 nm; em=485/20 nm) using a fluorescence plate reader. The inhibitory activity was calculated as the reduction of fluorescence with the following formula: Inhibition (%)={(F(Aβ)−F(Aβ+compound)}/{F(Aβ)−[…]}×100
The IC50s were calculated by a curve fitting program using the following equation. The data were obtained from two different experiments in triplicate. Inhibition (x)=100−100/{1+(x/IC50)^n}. • x=concentration of tested compound (M). • IC50=(M). • n=Hill coefficient.

Row | Compound | IC50 (Soluble Aβ(1-40) peptide) | IC50 (Aβ (1-42))
1 | CCCCCN(CCCCC)C1Cc2ccc(Nc3ccc([N+](=O)[O-])cc3C(=O)O)cc2C1 (stereo not drawn) [Example 1, 2-[(2-N,N-di-n-pentylamino)-indan-5-yl]amino-5-nitro-benzoic Acid] | > 100 µM | > 100 µM
2 | COc1ccc(Nc2ccc3c(c2)CC(NCc2ccc(Cl)c(Cl)c2)C3)c(C(=O)O)c1 (stereo not drawn) [Example 5, 2-[2-(3,4-Dichlorobenzylamino)-indan-5-ylamino]-5-methoxy-benzoic acid] | > 100 µM (2×) and 30 µM | > 100 µM
3 | CCCCCN(CCCCC)C1Cc2ccc(Nc3ccc(C(=O)O)cc3[N+](=O)[O-])cc2C1 (stereo not drawn) [Example 7, 4-(2-Dipentylamino-indan-5-yl-amino)-3-nitro-benzoic Acid] | > 100 µM (3×) and 15 µM | > 100 µM

Continued, values first:

Row | IC50 (Soluble Aβ(1-40) peptide) | IC50 (Aβ (1-42)) | Compound
4 | > 100 µM | > 100 µM | CCCCCN(CCCCC)C1Cc2ccc(Nc3ccc(C)cc3C(=O)O)cc2C1 (stereo not drawn) [Example 6, 2-(2-Dipentylamino-indan-5-yl-amino)-5-methyl-benzoic acid]
5 | > 100 µM (2×) and 90 µM and 10 µM | 53.8 µM | O=C(O)c1cc([N+](=O)[O-])ccc1Nc1ccc2c(c1)CC(NCc1ccc(F)cc1)C2 (stereo not drawn) [Example 10, 2-[2-(4-Fluorobenzylamino)-indan-5-ylamino]-5-nitro-benzoic acid]
6 | > 100 µM | > 100 µM | CCCCCNC1Cc2ccc(Nc3ccc([N+](=O)[O-])cc3C(=O)O)cc2C1 (stereo not drawn) [Example 12, 2-[2-(n-Pentylamino)-indan-5-ylamino]-5-nitro-benzoic acid]
